How the values were obtained:
Assay type in all cases: cell-based
[1] = system: Pseudomonas aeruginosa ATCC#33988; experiment: Microbial testing in diesel fuel, plate count
[2] = system: Yarrowia tropicalis ATCC#48138; experiment: Microbial testing in diesel fuel, plate count
[3] = system: Hormoconis resinae ATCC#20495; experiment: Microbial testing in diesel fuel, plate count
[4] = system: Pseudomonas aeruginosa ATCC#33988; experiment: Microbial testing in biodiesel fuel, plate count; settings: for Ps. aeruginosa organism count: Biocide 0 ppm; for Bacteria (Ps. aeruginosa) count: no biocide
[5] = system: Yarrowia tropicalis ATCC#48138; experiment: Microbial testing in biodiesel fuel, plate count; settings: Biocide 0 ppm
[6] = system: Hormoconis resinae ATCC#20495; experiment: Microbial testing in biodiesel fuel, plate count; settings: for H. resinae organism count: Biocide 0 ppm; for Mold (H. resinae) count: no biocide
[7] = system: mixed inoculum (Ps. aeruginosa, Y. tropicalis, H. resinae); experiment: Microbial resistance of biodiesel fuel, overall statements; settings: absence of biocide
[8] = amino alcohol 1500 ppm + FS 135 ppm, Day 0
[9] = amino alcohol 1500 ppm + FS 135 ppm, Wk 1
[10] = amino alcohol 1500 ppm + FS 135 ppm, Wk 2
[11] = amino alcohol 1500 ppm + FS 135 ppm, Wk 3
[12] = amino alcohol 1500 ppm + FS 135 ppm, Wk 4
[13] = amino alcohol 1500 ppm + FS 1000 ppm, Day 0
[14] = amino alcohol 1500 ppm + FS 1000 ppm, Wk 1
[15] = amino alcohol 1500 ppm + FS 1000 ppm, Wk 2
[16] = amino alcohol 1500 ppm + FS 1000 ppm, Wk 3
[17] = amino alcohol 1500 ppm + FS 1000 ppm, Wk 4
[18] = amino alcohol 1500 ppm, no biocide, Day 0
[19] = amino alcohol 1500 ppm, no biocide, Wk 1
[20] = amino alcohol 1500 ppm, no biocide, Wk 2
[21] = amino alcohol 1500 ppm, no biocide, Wk 3
[22] = amino alcohol 1500 ppm, no biocide, Wk 4
[23] = amino alcohol 3000 ppm + FS 135 ppm, Day 0
[24] = amino alcohol 3000 ppm + FS 135 ppm, Wk 1
[25] = amino alcohol 3000 ppm + FS 135 ppm, Wk 2
[26] = amino alcohol 3000 ppm + FS 135 ppm, Wk 3
[27] = amino alcohol 3000 ppm + FS 135 ppm, Wk 4
[28] = amino alcohol 3000 ppm + FS 1000 ppm, Day 0
[29] = amino alcohol 3000 ppm + FS 1000 ppm, Wk 1
[30] = amino alcohol 3000 ppm + FS 1000 ppm, Wk 2
[31] = amino alcohol 3000 ppm + FS 1000 ppm, Wk 3
[32] = amino alcohol 3000 ppm + FS 1000 ppm, Wk 4
[33] = amino alcohol 3000 ppm, no biocide, Day 0
[34] = amino alcohol 3000 ppm, no biocide, Wk 1
[35] = amino alcohol 3000 ppm, no biocide, Wk 2
[36] = amino alcohol 3000 ppm, no biocide, Wk 3
[37] = amino alcohol 3000 ppm, no biocide, Wk 4

`NC1(CO)CCCCC1` [ACyHM, 1-aminocyclohexylmethanol] was tested, and the “Ps. aeruginosa organism count” value [1, 8] was 3.7E6, the “Ps. aeruginosa organism count” value [1, 9] was 9.0E5 and the “Ps. aeruginosa organism count” value [1, 10] was 4.3E4. The “Ps. aeruginosa organism count” value [1, 11] was 1.1E2, the “Ps. aeruginosa organism count” value [1, 12] was 2.3E2 and the “Ps. aeruginosa organism count” value [1, 13] was 3.7E6. The “Ps. aeruginosa organism count” value [1, 14] was 7.8E3, the “Ps. aeruginosa organism count” value [1, 15] was <10 and the “Ps. aeruginosa organism count” value [1, 16] was <10. The “Ps. aeruginosa organism count” value [1, 17] was <10, the “Ps. aeruginosa organism count” value [1, 18] was 3.7E6 and the “Ps. aeruginosa organism count” value [1, 19] was 5.8E6. For the same molecule, the “Ps. aeruginosa organism count” value [1, 20] was 6.3E5, the “Ps. aeruginosa organism count” value [1, 21] was 4.4E5 and the “Ps. aeruginosa organism count” value [1, 22] was 8.7E5. The “Ps. aeruginosa organism count” value [1, 23] was 3.7E6, the “Ps. aeruginosa organism count” value [1, 24] was 8.6E2 and the “Ps. aeruginosa organism count” value [1, 25] was 7.0E1. For the same molecule, the “Ps. aeruginosa organism count” value [1, 26] was <10, the “Ps. aeruginosa organism count” value [1, 27] was 9.0E1 and the “Ps. aeruginosa organism count” value [1, 28] was 3.7E6. For the same molecule, the “Ps. aeruginosa organism count” value [1, 29] was <10, the “Ps. aeruginosa organism count” value [1, 30] was <10 and the “Ps. aeruginosa organism count” value [1, 31] was <10. The “Ps. aeruginosa organism count” value [1, 32] was <10, the “Ps. aeruginosa organism count” value [1, 33] was 3.7E6 and the “Ps. aeruginosa organism count” value [1, 34] was 2.0E6. The “Ps. aeruginosa organism count” value [1, 35] was 1.4E5, the “Ps. aeruginosa organism count” value [1, 36] was 7.7E4 and the “Ps. aeruginosa organism count” value [1, 37] was 9.0E4. For the same molecule, the “Y. tropicalis organism count” value [2, 8] was 2.8E5, the “Y. tropicalis organism count” value [2, 9] was 7.8E4 and the “Y. tropicalis organism count” value [2, 10] was 5.0E3. The “Y. tropicalis organism count” value [2, 11] was 6.7E2, the “Y. tropicalis organism count” value [2, 12] was 1.8E2 and the “Y. tropicalis organism count” value [2, 13] was 2.8E5. The “Y. tropicalis organism count” value [2, 14] was 1.6E4, the “Y. tropicalis organism count” value [2, 15] was <10 and the “Y. tropicalis organism count” value [2, 16] was <10. The “Y. tropicalis organism count” value [2, 17] was <10, the “Y. tropicalis organism count” value [2, 18] was 2.8E5 and the “Y. tropicalis organism count” value [2, 19] was 4.5E5. The “Y. tropicalis organism count” value [2, 20] was 1.3E5, the “Y. tropicalis organism count” value [2, 21] was 7.6E4 and the “Y. tropicalis organism count” value [2, 22] was 5.3E4. The “Y. tropicalis organism count” value [2, 23] was 2.8E5, the “Y. tropicalis organism count” value [2, 24] was 1.3E2 and the “Y. tropicalis organism count” value [2, 25] was <10. The “Y. tropicalis organism count” value [2, 26] was <10, the “Y. tropicalis organism count” value [2, 27] was <10 and the “Y. tropicalis organism count” value [2, 28] was 2.8E5. The “Y. tropicalis organism count” value [2, 29] was <10, the “Y. tropicalis organism count” value [2, 30] was <10 and the “Y. tropicalis organism count” value [2, 31] was <10. The “Y. tropicalis organism count” value [2, 32] was <10, the “Y. tropicalis organism count” value [2, 33] was 2.8E5 and the “Y. tropicalis organism count” value [2, 34] was 9.3E4. For the same molecule, the “Y. tropicalis organism count” value [2, 35] was 4.0E4, the “Y. tropicalis organism count” value [2, 36] was 1.6E4 and the “Y. tropicalis organism count” value [2, 37] was 2.7E4. The “H. resinae organism count” value [3, 8] was 5.3E5, the “H. resinae organism count” value [3, 9] was 2.5E5 and the “H. resinae organism count” value [3, 10] was 2.0E3. For the same molecule, the “H. resinae organism count” value [3, 11] was 4.3E2, the “H. resinae organism count” value [3, 12] was 7.0E2 and the “H. resinae organism count” value [3, 13] was 5.3E5. For the same molecule, the “H. resinae organism count” value [3, 14] was 1.1E4, the “H. resinae organism count” value [3, 15] was <10 and the “H. resinae organism count” value [3, 16] was <10. The “H. resinae organism count” value [3, 17] was 8.0E1, the “H. resinae organism count” value [3, 18] was 5.3E5 and the “H. resinae organism count” value [3, 19] was 5.0E5. The “H. resinae organism count” value [3, 20] was 1.3E5, the “H. resinae organism count” value [3, 21] was 1.2E5 and the “H. resinae organism count” value [3, 22] was 2.7E5. The “H. resinae organism count” value [3, 23] was 5.3E5, the “H. resinae organism count” value [3, 24] was 2.0E3 and the “H. resinae organism count” value [3, 25] was 2.7E2. The “H. resinae organism count” value [3, 26] was <10, the “H. resinae organism count” value [3, 27] was 1.6E2 and the “H. resinae organism count” value [3, 28] was 5.3E5. The “H. resinae organism count” value [3, 29] was 4.3E2, the “H. resinae organism count” value [3, 30] was <10 and the “H. resinae organism count” value [3, 31] was 5.0E1. For the same molecule, the “H. resinae organism count” value [3, 32] was <10, the “H. resinae organism count” value [3, 33] was 5.3E5 and the “H. resinae organism count” value [3, 34] was 9.4E4. The “H. resinae organism count” value [3, 35] was 4.6E4, the “H. resinae organism count” value [3, 36] was 6.6E4 and the “H. resinae organism count” value [3, 37] was 4.8E4. The “Ps. aeruginosa organism count” value ([4]; aminoalcohol 1500 ppm, Week 1) was <1.0E2, the “Ps. aeruginosa organism count” value ([4]; aminoalcohol 1500 ppm, Week 2) was <1.0E2 and the “Ps. aeruginosa organism count” value ([4]; aminoalcohol 1500 ppm, Week 3) was <1.0E2. The “Ps. aeruginosa organism count” value ([4]; aminoalcohol 1500 ppm, Week 4) was <1.0E2, the “Ps. aeruginosa organism count” value ([4]; aminoalcohol 3000 ppm, Week 1) was <1.0E2 and the “Ps. aeruginosa organism count” value ([4]; aminoalcohol 3000 ppm, Week 2) was <1.0E2. For the same molecule, the “Ps. aeruginosa organism count” value ([4]; aminoalcohol 3000 ppm, Week 3) was <1.0E2, the “Ps. aeruginosa organism count” value ([4]; aminoalcohol 3000 ppm, Week 4) was <1.0E2 and the “Y. tropicalis organism count” value ([5]; aminoalcohol 1500 ppm, Week 1) was <1.0E2. For the same molecule, the “Y. tropicalis organism count” value ([5]; aminoalcohol 1500 ppm, Week 2) was <1.0E2, the “Y. tropicalis organism count” value ([5]; aminoalcohol 1500 ppm, Week 3) was <1.0E2 and the “Y. tropicalis organism count” value ([5]; aminoalcohol 1500 ppm, Week 4) was <1.0E2. For the same molecule, the “Y. tropicalis organism count” value ([5]; aminoalcohol 3000 ppm, Week 1) was <1.0E2, the “Y. tropicalis organism count” value ([5]; aminoalcohol 3000 ppm, Week 2) was <1.0E2 and the “Y. tropicalis organism count” value ([5]; aminoalcohol 3000 ppm, Week 3) was <1.0E2. For the same molecule, the “Y. tropicalis organism count” value ([5]; aminoalcohol 3000 ppm, Week 4) was <1.0E2, the “H. resinae organism count” value ([6]; aminoalcohol 1500 ppm, Week 1) was <1.0E2 and the “H. resinae organism count” value ([6]; aminoalcohol 1500 ppm, Week 2) was <1.0E2. For the same molecule, the “H. resinae organism count” value ([6]; aminoalcohol 1500 ppm, Week 3) was <1.0E2, the “H. resinae organism count” value ([6]; aminoalcohol 1500 ppm, Week 4) was <1.0E2 and the “H. resinae organism count” value ([6]; aminoalcohol 3000 ppm, Week 1) was <1.0E2. For the same molecule, the “H. resinae organism count” value ([6]; aminoalcohol 3000 ppm, Week 2) was <1.0E2, the “H. resinae organism count” value ([6]; aminoalcohol 3000 ppm, Week 3) was <1.0E2 and the “H. resinae organism count” value ([6]; aminoalcohol 3000 ppm, Week 4) was <1.0E2.

In the case of `CCCCCCCC/C=C\CCCCCCCC(=O)[O-].[K+]` [KOH/Oleic, potassium oleate], the “effect on microbial resistance of biodiesel” value [7] is reported as “no effect”.

`CCCCCCCC/C=C\CCCCCCCC(=O)O` [Oleic Acid, oleic acid] was tested, and the “Bacteria (Ps. aeruginosa) count” value ([4]; additive 500 ppm, Week 1) was 7.80E+05 Bact/ml, the “Bacteria (Ps. aeruginosa) count” value ([4]; additive 500 ppm, Week 2) was 8.80E+05 Bact/ml and the “Bacteria (Ps. aeruginosa) count” value ([4]; additive 500 ppm, Week 3) was 7.40E+05 Bact/ml. For the same molecule, the “Bacteria (Ps. aeruginosa) count” value ([4]; additive 500 ppm, Week 4) was 8.00E+05 Bact/ml, the “Bacteria (Ps. aeruginosa) count” value ([4]; additive 1500 ppm, Week 1) was 5.00E+04 Bact/ml and the “Bacteria (Ps. aeruginosa) count” value ([4]; additive 1500 ppm, Week 2) was 2.00E+05 Bact/ml. For the same molecule, the “Bacteria (Ps. aeruginosa) count” value ([4]; additive 1500 ppm, Week 3) was 1.30E+05 Bact/ml, the “Bacteria (Ps. aeruginosa) count” value ([4]; additive 1500 ppm, Week 4) was 3.20E+05 Bact/ml and the “Mold (H. resinae) count” value ([6]; additive 500 ppm, Week 1) was 1.70E+05 Mold/ml. The “Mold (H. resinae) count” value ([6]; additive 500 ppm, Week 2) was 6.00E+05 Mold/ml, the “Mold (H. resinae) count” value ([6]; additive 500 ppm, Week 3) was 8.20E+05 Mold/ml and the “Mold (H. resinae) count” value ([6]; additive 500 ppm, Week 4) was 7.80E+03 Mold/ml. For the same molecule, the “Mold (H. resinae) count” value ([6]; additive 1500 ppm, Week 1) was 6.40E+04 Mold/ml, the “Mold (H. resinae) count” value ([6]; additive 1500 ppm, Week 2) was 7.70E+05 Mold/ml and the “Mold (H. resinae) count” value ([6]; additive 1500 ppm, Week 3) was 6.00E+05 Mold/ml. For the same molecule, the “Mold (H. resinae) count” value ([6]; additive 1500 ppm, Week 4) was 9.80E+03 Mold/ml and the “effect on microbial resistance of biodiesel” value [7] was “no effect”.

Source: patent US8546386B2, “Corrosion and microbial control in hydrocarbonaceous compositions” (Dow Global Technologies LLC, priority 2008, dated 2013)
